In PubChem BioAssay (NCI):
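Following 48 hours of exposure in 96-well plates, responses at five concentrations were used to interpolate endpoints linearly. GI50 marks 50% less growth. TGI: total growth inhibition.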

Experiments:
Assay in all cases: NCI tumour cell line growth inhibition, 48 h
[1] = test system: 786-0 renal
[2] = test system: A498 renal
[3] = test system: A549 NSCLC
[4] = test system: ACHN renal
[5] = test system: BT-549 breast
[6] = test system: CCRF-CEM leukemia
[7] = test system: COLO 205 colon
[8] = test system: DU-145 prostate
[9] = test system: HCT-116 colon
[10] = test system: HCT-15 colon
[11] = test system: HL-60(TB) leukemia
[12] = test system: HOP-62 NSCLC
[13] = test system: HOP-92 NSCLC
[14] = test system: HS 578T breast
[15] = test system: HT29 colon
[16] = test system: IGROV1 ovarian
[17] = test system: K-562 leukemia
[18] = test system: LOX IMVI melanoma
[19] = test system: M14 melanoma
[20] = test system: MCF7 breast
[21] = test system: MDA-MB-231 breast
[22] = test system: MDA-MB-435
[23] = test system: NCI-H226 lung
[24] = test system: NCI-H23 lung
[25] = test system: NCI-H460 lung
[26] = test system: NCI/ADR-RES ovarian
[27] = test system: OVCAR-3 ovarian
[28] = test system: OVCAR-4 ovarian
[29] = test system: OVCAR-5 ovarian
[30] = test system: OVCAR-8 ovarian
[31] = test system: PC-3 prostate
[32] = test system: RPMI-8226 leukemia
[33] = test system: RXF 393 renal
[34] = test system: SF-268 CNS
[35] = test system: SF-539 CNS
[36] = test system: SK-MEL-2 melanoma
[37] = test system: SK-MEL-28 melanoma
[38] = test system: SK-MEL-5 melanoma
[39] = test system: SK-OV-3 ovarian
[40] = test system: SN12C renal
[41] = test system: SNB-19 CNS
[42] = test system: SNB-75 CNS
[43] = test system: SW-620 colon
[44] = test system: T-47D breast
[45] = test system: TK-10 renal
[46] = test system: U251 CNS
[47] = test system: UACC-257 melanoma
[48] = test system: UACC-62 melanoma
[49] = test system: UO-31 renal
[50] = test system: CAKI-1 renal
[51] = test system: EKVX NSCLC
[52] = test system: HCC-2998 colon
[53] = test system: KM12 colon
[54] = test system: MALME-3M melanoma
[55] = test system: MOLT-4 leukemia
[56] = test system: SF-295 CNS

Compound `COc1ccc(/C=C2\N=C(SC)N(C)C2=O)cc1` has a TGI [1] greater than 100 µM, a TGI [2] greater than 100 µM and a TGI [3] greater than 100 µM. The TGI [4] was greater than 100 µM, the TGI [5] was greater than 100 µM and the TGI [6] was greater than 100 µM. For the same compound, the TGI [7] was greater than 100 µM, the TGI [8] was greater than 100 µM and the TGI [9] was greater than 100 µM. For the same compound, the TGI [10] was greater than 100 µM, the TGI [11] was greater than 100 µM and the TGI [12] was greater than 100 µM. The TGI [13] was greater than 100 µM, the TGI [14] was 90.4 µM and the TGI [15] was greater than 100 µM. For the same compound, the TGI [16] was greater than 100 µM, the TGI [17] was greater than 100 µM and the TGI [18] was greater than 100 µM. The TGI [19] was greater than 100 µM, the TGI [20] was greater than 100 µM and the TGI [21] was greater than 100 µM. For the same compound, the TGI [22] was greater than 100 µM, the TGI [23] was greater than 100 µM and the TGI [24] was greater than 100 µM. The TGI [25] was greater than 100 µM, the TGI [26] was greater than 100 µM and the TGI [27] was greater than 100 µM. It also gave a TGI [28] greater than 100 µM, a TGI [29] greater than 100 µM and a TGI [30] greater than 100 µM. For the same compound, the TGI [31] was greater than 100 µM, the TGI [32] was greater than 100 µM and the TGI [33] was greater than 100 µM. The TGI [34] was greater than 100 µM, the TGI [35] was greater than 100 µM and the TGI [36] was greater than 100 µM. The TGI [37] was greater than 100 µM, the TGI [38] was greater than 100 µM and the TGI [39] was greater than 100 µM. It also gave a TGI [40] greater than 100 µM, a TGI [41] greater than 100 µM and a TGI [42] greater than 100 µM. The TGI [43] was greater than 100 µM, the TGI [44] was greater than 100 µM and the TGI [45] was greater than 100 µM. For the same compound, the TGI [46] was greater than 100 µM, the TGI [47] was greater than 100 µM and the TGI [48] was greater than 100 µM. The TGI [49] was greater than 100 µM.

`Cc1ccc(NCCN2CCCCC2)c2c(=O)c3ccccc3sc12` showed a GI50 [1] of 1.63 µM, a TGI [1] of 3.61 µM and a GI50 [2] of 1.91 µM. For the same compound, the TGI [2] was 3.64 µM, the GI50 [3] was 1.42 µM and the TGI [3] was 2.97 µM. For the same compound, the GI50 [4] was 2.68 µM, the TGI [4] was 7.47 µM and the GI50 [5] was 2.43 µM. The TGI [5] was 9.59 µM, the GI50 [50] was 0.278 µM and the TGI [50] was 2.43 µM. For the same compound, the GI50 [6] was 2.38 µM, the TGI [6] was 6.92 µM and the GI50 [7] was 1.45 µM. The TGI [7] was 2.85 µM, the GI50 [8] was 3.76 µM and the TGI [8] was 14.4 µM. For the same compound, the GI50 [51] was 2.77 µM, the TGI [51] was 13.1 µM and the GI50 [52] was 2.16 µM. For the same compound, the TGI [52] was 3.67 µM, the GI50 [9] was 1.68 µM and the TGI [9] was 3.17 µM. It also gave a GI50 [10] of 3.17 µM, a TGI [10] of 10.8 µM and a GI50 [11] of 1.66 µM. It also gave a TGI [11] of 3.6 µM, a GI50 [12] of 1.55 µM and a TGI [12] of 3.07 µM. For the same compound, the GI50 [13] was 1.88 µM, the TGI [13] was 7.56 µM and the GI50 [14] was 2.03 µM. For the same compound, the TGI [14] was 5.17 µM, the GI50 [15] was 1.97 µM and the TGI [15] was 4.72 µM. For the same compound, the GI50 [16] was 1.48 µM, the TGI [16] was 4.3 µM and the GI50 [17] was 1.64 µM. For the same compound, the TGI [17] was 3.52 µM, the GI50 [53] was 3.81 µM and the TGI [53] was 14.4 µM. For the same compound, the GI50 [18] was 1.78 µM, the TGI [18] was 3.68 µM and the GI50 [19] was 1.61 µM. It also gave a TGI [19] of 2.97 µM, a GI50 [54] of 1.19 µM and a TGI [54] of 2.55 µM. For the same compound, the GI50 [20] was 1.56 µM, the TGI [20] was 3.55 µM and the GI50 [21] was 2.12 µM. It also gave a TGI [21] of 4.77 µM, a GI50 [22] of 1.78 µM and a TGI [22] of 3.73 µM. For the same compound, the GI50 [55] was 1.99 µM, the TGI [55] was 4.91 µM and the GI50 [23] was 2.24 µM. For the same compound, the TGI [23] was 4.96 µM, the GI50 [24] was 2.25 µM and the TGI [24] was 5.77 µM. For the same compound, the GI50 [25] was 1.89 µM, the TGI [25] was 3.88 µM and the GI50 [26] was 2.45 µM. The TGI [26] was 6.78 µM, the GI50 [27] was 4.75 µM and the TGI [27] was 17.6 µM. It also gave a GI50 [28] of 5.57 µM, a TGI [28] of 18.1 µM and a GI50 [29] of 1.97 µM. It also gave a TGI [29] of 3.64 µM, a GI50 [31] of 2.14 µM and a TGI [31] of 7.49 µM. It also gave a GI50 [32] of 1.49 µM, a TGI [32] of 3.42 µM and a GI50 [34] of 5.33 µM. For the same compound, the TGI [34] was 18.7 µM, the GI50 [56] was 1.63 µM and the TGI [56] was 3.73 µM. It also gave a GI50 [35] of 1.97 µM, a TGI [35] of 5.98 µM and a GI50 [37] of 2.43 µM. The TGI [37] was 4.16 µM, the GI50 [38] was 1.62 µM and the TGI [38] was 3 µM. It also gave a GI50 [39] of 2.04 µM, a TGI [39] of 6.03 µM and a GI50 [40] of 4.35 µM. The TGI [40] was 17.6 µM, the GI50 [41] was 2.8 µM and the TGI [41] was 13.1 µM. For the same compound, the GI50 [42] was 2.61 µM, the TGI [42] was 8.09 µM and the GI50 [43] was 1.96 µM. For the same compound, the TGI [43] was 4.01 µM, the GI50 [44] was 2.02 µM and the TGI [44] was 6 µM. For the same compound, the GI50 [45] was 2 µM, the TGI [45] was 5.82 µM and the GI50 [46] was 2.61 µM. For the same compound, the TGI [46] was 7.9 µM, the GI50 [48] was 1.92 µM and the TGI [48] was 3.77 µM.
